Source: US20250302973A1, “POLYMER CONJUGATES OF DRUGS WITH CENTRAL NERVOUS SYSTEM (CNS) EFFECTS AND […] BLOCKING ACTIVITY AND/OR IMMUNE SYSTEM […]” (UNIVERSITY OF PADOVA, priority 2022, published 2025)

What was measured:
A-549 cells = test: A-549 lung cells co-cultured 24 hours with THP-1-derived macrophages, mRNA expression of inflammatory cytokines; details: 1 μM; A-549 cells incubated (co-culture) with macrophages derived from THP-1 cells; effect only in presence of macrophages
C57BL6/J male mice = test: Open field test, total locomotor activity as distance travelled; format: in vivo; details: intraperitoneal 0.3 mg/kg MK-801 or equivalent dose, test 10 min after injection, compared with vehicle, n=7 per group
Protocol: The present inventors used 7 C57BL6/J male (3-4 months old) mice per treatment group, keeping them in a temperature-controlled room (22° C.) on a 12:12 h light-dark cycle (light on at 7:00 AM) and fed a standard pellet diet and tap water ad libitum. Experimental mice were habituated to the testing room by transferring them to the behavioural room 30 min prior to beginning of the test. The open field test was conducted between 9:00 am and 4:00 pm. MK-801 and derivatives were dissolved in a vehicle composed by 0.9% NaCl physiological solution. Each mouse was singly placed at the corner of a grey-painted open field arena (40×40×30 cm) 10 min after the intraperitoneal injection (Volume of injection 0.1 mL) of either Vehicle, 0.3 mg/kg MK-801, or the equivalent dose of 0.3 mg/kg MK-801 of the PEG 4 MK-801, PEG 6 MK-801, PEG 8 MK-801 or PEG 10 MK-801 derivatives. Using an automated behavioral tracking system (Videotrack, View Point Life Science), we determined the total locomotor activity measured as distance travelled by the animal during the 10 min duration of the test.

C[C@]12N[C@H](Cc3ccccc31)c1ccccc12 [MK-801, dizocilpine]
mRNA expression of the inflammatory cytokine CCL-2 (A-549 cells): reduces | mRNA expression of the inflammatory cytokine IL-1β (A-549 cells): reduces | distance travelled by the mice during 10 min in the Open Field Test (C57BL6/J male mice): significantly increased

CCC(=O)C(C[C@H](C)N(C)C)(c1ccccc1)c1ccccc1 [esmethadone, (S)-methadone]
mRNA expression of the inflammatory cytokine CCL-2 (A-549 cells): reduces | mRNA expression of the inflammatory cytokine IL-1β (A-549 cells): reduces
